Read-outs that look alike come from different tables or passages of the source.

One test addresses TcG6PDH wildtype (Trypanosoma cruzi, UniProt Q1WBU6). In words: Inhibitor assay with wildtype TcG6PDH (NADPH formation at 340 nm). Format: biochemical. The settings on record: for activity at 30 µM: read-out: G6PDH Activity [%] ± SD at 30 µM Compound; for inhibition at 30 µM: read-out: inhibition at 30 μM compound; for increase of potency towards the parasite enzyme compared to the parental scaffold (EA): vs EA.

The test system of another test is human G6PDH. The following applies: cited from earlier work; for IC50: read-out: IC50 (anti-human G6PDH activity); for increase of inhibition of human G6PDH compared to the parental scaffold (EA): vs EA.
For the next test, the system named is WT TcG6PDH. The test can be described thus: Kinetic assay of WT TcG6PDH with substrates.
In another test the target is T. cruzi G6PDH (TcG6PDH). The following applies: cited from earlier work.
A further test has as its target G6PDH from T. brucei. The settings on record: cited from earlier work.
Test [1] relates to African trypanosomes expressing an ectopic copy of L. mexicana G6PDH. The following applies: endogenous G6PDH deficient; cited from earlier work.

TcG6PDH wildtype, sequence (Q1WBU6 entry or part of it): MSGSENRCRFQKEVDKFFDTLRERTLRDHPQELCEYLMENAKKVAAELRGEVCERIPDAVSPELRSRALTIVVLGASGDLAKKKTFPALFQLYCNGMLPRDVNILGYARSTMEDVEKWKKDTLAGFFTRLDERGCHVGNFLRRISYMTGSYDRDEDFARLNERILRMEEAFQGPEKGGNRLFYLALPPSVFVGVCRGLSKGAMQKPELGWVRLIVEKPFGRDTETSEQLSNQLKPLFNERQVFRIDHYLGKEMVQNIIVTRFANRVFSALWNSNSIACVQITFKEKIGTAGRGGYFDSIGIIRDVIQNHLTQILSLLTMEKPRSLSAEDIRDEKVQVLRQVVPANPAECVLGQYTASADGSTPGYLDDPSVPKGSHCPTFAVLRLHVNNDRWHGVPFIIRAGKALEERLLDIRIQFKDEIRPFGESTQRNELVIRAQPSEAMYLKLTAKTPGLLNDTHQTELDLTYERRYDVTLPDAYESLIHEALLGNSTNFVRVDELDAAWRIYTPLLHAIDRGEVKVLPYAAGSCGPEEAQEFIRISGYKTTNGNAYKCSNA
Protocol for WT TcG6PDH: G6PDH activity was determined at ~25 °C by monitoring NADPH (ε340 = 6220 M^−1·cm^−1) formation at 340 nm. All assays were performed in buffer B (50 mM Tris pH 7.5, 5 mM MgCl2) in a final reaction volume of 150 µL and started by addition of glucose-6-phosphate (G6P). For WT TcG6PDH, the Michaelis’ constants (KM) and the maximum initial velocity (Vmax) were determined varying reciprocally the substrate (10, 50, 200, 1000 and 5000 µM G6P) and coenzyme (5, 10, 50, 250 and 625 µM NADP^+) concentrations. For the mutants, the kinetic characterization was performed at a fixed saturating concentration of the corresponding co-substrate (i.e., 6 mM G6P and 700 µM NADP^+) and varying concentrations of the substrate (25, 50, 70, 100, 250, 350, 500 and 700 µM NADP^+, and 0.005, 0.025, 0.05, 0.25, 0.65, 1, 2.5 and 5 mM G6P). […] The first 30 s of the reaction were used to calculate initial velocities that were normalized by the corresponding enzyme concentration in the assay. All measurements were performed in triplicate using a Cary 50 Bio spectrophotometer (Agilent Technologies, Santa Clara, CA, USA). The initial rates were determined with the Origin Pro 8.0 software (OriginLab Corporation, Northampton, MA, USA), and the apparent kinetic constants were calculated by nonlinear regression using the GraphPad Prism 5.0 software (GraphPad Inc., San Diego, CA, USA). The data were fitted to the Cleland or Michaelis-Menten equation to obtain the corresponding kinetic parameters.

On to `C[C@]12CC[C@H](NS(N)(=O)=O)CC1CCC1C2CC[C@@]2(C)C1CC[C@@H]2C(=O)CO` (stereo partly shown) [Compound 3], for which, at TcG6PDH wildtype, the activity at 30 µM is 30 ± 2% and the inhibition at 30 µM is 60 to 70%. Further, the IC50 with human G6PDH was about 2000 nM.

In the case of `C[C@]12CC[C@H](O)CC1CCC1C2CC[C@]2(C)C(=O)C(Br)CC12` (stereo partly shown) [Compound 16Br-EA, 16-bromo epiandrosterone, reference compound], the “activity against human G6PDH relative to TcG6PDH” value in the test on human G6PDH is “almost two orders of magnitude less active”.

On to `CCNC(=O)N[C@H]1CC[C@@]2(C)C(CCC3C2CC[C@]2(C)C(=O)CCC32)C1` (stereo partly shown) [Compound 1], for which, at TcG6PDH wildtype, half-maximal inhibition (IC50) was put at 1500 nM, the activity at 30 µM turned out to be 7 ± 1% and the “increase of potency towards the parasite enzyme compared to the parental scaffold (EA)” value is at most 2 fold. Besides, the “increase of inhibition of human G6PDH compared to the parental scaffold (EA)” value with human G6PDH is listed as ~ 10 fold.

For the compound `O=C[C@H](O)[C@@H](O)[C@H](O)[C@H](O)COP(=O)(O)O` [Compound G6P, glucose-6-phosphate], in the test on WT TcG6PDH (read-out: KM G6P, apparent, triplicate), the Michaelis constant (Km) was 77 ± 20 µM. Moreover, in the test on WT TcG6PDH (varying G6P), the kcat is 62 ± 3 s⁻¹.

`C[C@]12CC[C@H](O)CC1=CC[C@@H]1[C@@H]2CC[C@]2(C)C(=O)CC[C@@H]12` [DHEA, dehydroepiandrosterone]: the Ki is 2.6 to 25 µM at T. cruzi G6PDH (TcG6PDH), 6 to 9 µM on human G6PDH and 1700 nM on G6PDH from T. brucei.

As for `C[C@]12CC[C@H](O)C[C@@H]1CC[C@@H]1[C@@H]2CC[C@]2(C)C(=O)CC[C@@H]12` [EA, epiandrosterone, reference compound], at TcG6PDH wildtype, half-maximal inhibition (IC50) was put at 3000 ± 400 nM. In addition, the activity at 30 µM at TcG6PDH wildtype was 12 ± 2%. In addition, the “sensitivity of trypanosomes expressing L. mexicana G6PDH” value in test [1] was “resistant”. Besides, the Ki at T. cruzi G6PDH (TcG6PDH) is 1 to 5.6 µM; at human G6PDH, 3 µM; on G6PDH from T. brucei it was 500 nM.

As to `NC(=O)c1ccc[n+]([C@@H]2O[C@H](COP(=O)([O-])OP(=O)(O)OC[C@H]3O[C@@H](n4cnc5c(N)ncnc54)[C@H](OP(=O)(O)O)[C@@H]3O)[C@@H](O)[C@H]2O)c1` [NADP^+], in the test on WT TcG6PDH (read-out: KM NADP^+, apparent, triplicate), the Km came to 16 ± 3 µM. Besides, in the test on WT TcG6PDH (varying NADP+), the kcat was 52 ± 2 s⁻¹.

With `C[C@]12CC[C@H](O)CC1CCC1C2CC[C@@]2(C)C1CC[C@@H]2C(=O)CO` (stereo partly shown) [Compound 4], at TcG6PDH wildtype, the activity at 30 µM came out at 43 ± 2% and the inhibition at 30 µM lay in the range of 60 to 70%. In addition, in the test on human G6PDH, the IC50 was about 2000 nM.

`C[C@]12CC[C@H](NS(N)(=O)=O)CC1CCC1C2CC[C@]2(C)C(=O)CCC12` (stereo partly shown) [Compound 2]: on TcG6PDH wildtype, the concentration for half-maximal inhibition (IC50) was determined as 2200 nM, the activity at 30 µM was determined as 9 ± 1% and the “increase of potency towards the parasite enzyme compared to the parental scaffold (EA)” value was at most 2 fold. Also, the “increase of inhibition of human G6PDH compared to the parental scaffold (EA)” value in the test with human G6PDH was ~ 10 fold.

As usually defined, the inhibition is the change of the read-out against control, counted positive when it falls. As a reminder, the IC50 is the point on the concentration scale where inhibition reaches its midpoint. The term Km denotes the substrate concentration at which the rate is half of its maximum. A word on the kcat: it is the maximal rate divided by the concentration of active sites. As usually defined, the Ki is the equilibrium dissociation constant of an inhibitor or competing ligand from its target.

These data come from PMC6273692, “Binding Mode and Selectivity of Steroids towards Glucose-6-phosphate Dehydrogenase from the Pathogen Trypanosoma cruzi” (Molecules, 2016).
